# Experiments:
# [1] = Rat PK studies (MAP vs subcutaneous), with body weights and application site observations; details: rat follow up study; target dose 220 μg
# Procedure: (§1) The first study was a pilot study evaluating the impact of array size and dose per needle on the PK profile. Approximately 324 μg of GLP-1 was formulated in Form 1 and delivered with a 60 vs a 90-microneedle array (FIG. 25A). […] The second study was a pilot study evaluating˜5 μg per needle formulated in either Form 1 or Form 2 each delivered with a 61-microneedle array.
# (§2) A follow up PK study, with more extensive sampling, particularly in the first 48 hours, was carried out next.
# (§3) A dose matched sample formulated in Tris buffer delivered by the subcutaneous route was included as a comparator. MAP dose loading and delivery was confirmed by RP-HPLC (FIG. 26A, top panels). […] The inset in FIG. 26A plots the total area under the curve (AUC) which is a measure of the total exposure to drug product for each animal, for each treatment group and serves as an estimate of bioavailability.
# (§4) Male Sprague-Dawley rats (n≥5) of approximately 350-450 g and male Göttingen mini-pigs of 25-30 kg (n≥3) are used in pharmacokinetic studies. […] Individual animal plasma concentration-time values are used to calculate plasma concentration-time data for each delivery route and analyzed by noncompartmental pharmacokinetics using standard PK software.
# [2] = rat, in vivo, 220 ug
# Procedure: as §1, §2, §3, §4
substance,measurement,setting,value
semaglutide [SQ delivered GLP-1],weight loss by Day 4,[1],10%
same,AUC (bioavailability),[2],some variation in the AUC

# — patent US12434040B2, “Applicator for a microneedle array patch delivery system” (VAXESS TECHNOLOGIES, INC., priority 2023, dated 2025)
